Values of other authors in patent publication US8288366B2, “Formulation for hair growth” (priority 2006, dated 2012).

Tested on: mice with a mutant hairless gene
Conditions: applied topically

## N[C@@H](Cc1cc(I)c(Oc2ccc(O)c(I)c2)c(I)c1)C(=O)O [T3, triiodothyronine]
  hair growth: stimulate hair growth
